From patent US7671061B2, “Methods and compositions for treating pain” (Hydra Biosciences, Inc., priority 2005, dated 2010)

Tests used:
hTRPA1 [1] = target: T1, hTRPA1 (Homo sapiens, UniProt O75762, K186N); assay: TRPA1 patch clamp (perforated patch, AITC-activated current); type: cell-based
T1 construct: expressed in transfected cells; host or cells: HEK293/TREx (Invitrogen), induced with tetracycline
Text: Patch clamp experiments permit the detection of currents through the TRPA1 channel in the cell line described above. To permit recording of current at a stable level and prevent the “rundown” observed by other labs, it is necessary to use the perforated patch technique, which prevents dialysis of the cytoplasm with the pipette solution. In normal whole-cell patch clamp recordings, a glass electrode is brought into contact with a single cell and a high-resistance (gigaohm) seal is established with the cell membrane. The membrane is then ruptured to achieve the whole-cell configuration, permitting control of the voltage of the cell membrane and measurement of currents flowing across the membrane using the amplifier attached to the electrode and resulting in the replacement of cytoplasm with the pipette solution. In contrast, in the perforated patch mode, an antibiotic, amphotericin, is present in the pipette solution and diffuses into contact with the cell after the seal is achieved, over the course of several minutes. The amphotericin forms ion-permeable pores in the membrane under the pipette, permitting passage of some ions but maintaining most native cytosolic components. A perfusion system permits control of the extracellular solution, including the addition of blockers and activators of the current. The current can be activated by addition of 5 μM AITC to the solution. […] In some cases, cells were grown in low density overnight on glass coverslips. Patch clamp recordings were made in the whole-cell mode with a holding potential of −40 mV. Every 5 seconds, a voltage ramp was applied from −120 to +100 mV, 400 ms in duration. Currents elicited were quantified at −80 mV and +80 mV. […] The external solution consisted of 150 mM NaCl, 4.5 mM KCl, 3 mM MgCl2, 10 mM HEPES, […], 1 mM EGTA, pH 7.4. Upon addition of AITC, TRPA1 current was induced only in TRPA1-expressing cells and not in parental HEK293 TREx cells. Removal of the AITC stimulus causes most of the current to go away. Potential blockers were tested for ability to block both inward and outward currents in the continued presence of AITC.

hTRPA1 [2] = target: T1, hTRPA1; assay: High throughput Ca2+ fluorescence (Fluo4) assay, AITC stimulation; type: cell-based
Procedure, shortened: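 Tetracycline-induced HEK293/TREx cells loaded with 1 μM Fluo4/AM for 60 min at room temperature. Compound added for 2 min after a 4-frame baseline, then AITC; fluorescence followed ~3 min.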

[3] = Table 2, inward current, read-out: hTRPA1 Patch Inwd IC50
[4] = Table 2, read-out: hTRPA1 Fluor IC50
[5] = Table 1, read-out: hTRPA1 Patch IC50
[6] = Table 1, read-out: hTRPA1 Fluo4 IC50

T1 sequence (O75762 whole entry K186N): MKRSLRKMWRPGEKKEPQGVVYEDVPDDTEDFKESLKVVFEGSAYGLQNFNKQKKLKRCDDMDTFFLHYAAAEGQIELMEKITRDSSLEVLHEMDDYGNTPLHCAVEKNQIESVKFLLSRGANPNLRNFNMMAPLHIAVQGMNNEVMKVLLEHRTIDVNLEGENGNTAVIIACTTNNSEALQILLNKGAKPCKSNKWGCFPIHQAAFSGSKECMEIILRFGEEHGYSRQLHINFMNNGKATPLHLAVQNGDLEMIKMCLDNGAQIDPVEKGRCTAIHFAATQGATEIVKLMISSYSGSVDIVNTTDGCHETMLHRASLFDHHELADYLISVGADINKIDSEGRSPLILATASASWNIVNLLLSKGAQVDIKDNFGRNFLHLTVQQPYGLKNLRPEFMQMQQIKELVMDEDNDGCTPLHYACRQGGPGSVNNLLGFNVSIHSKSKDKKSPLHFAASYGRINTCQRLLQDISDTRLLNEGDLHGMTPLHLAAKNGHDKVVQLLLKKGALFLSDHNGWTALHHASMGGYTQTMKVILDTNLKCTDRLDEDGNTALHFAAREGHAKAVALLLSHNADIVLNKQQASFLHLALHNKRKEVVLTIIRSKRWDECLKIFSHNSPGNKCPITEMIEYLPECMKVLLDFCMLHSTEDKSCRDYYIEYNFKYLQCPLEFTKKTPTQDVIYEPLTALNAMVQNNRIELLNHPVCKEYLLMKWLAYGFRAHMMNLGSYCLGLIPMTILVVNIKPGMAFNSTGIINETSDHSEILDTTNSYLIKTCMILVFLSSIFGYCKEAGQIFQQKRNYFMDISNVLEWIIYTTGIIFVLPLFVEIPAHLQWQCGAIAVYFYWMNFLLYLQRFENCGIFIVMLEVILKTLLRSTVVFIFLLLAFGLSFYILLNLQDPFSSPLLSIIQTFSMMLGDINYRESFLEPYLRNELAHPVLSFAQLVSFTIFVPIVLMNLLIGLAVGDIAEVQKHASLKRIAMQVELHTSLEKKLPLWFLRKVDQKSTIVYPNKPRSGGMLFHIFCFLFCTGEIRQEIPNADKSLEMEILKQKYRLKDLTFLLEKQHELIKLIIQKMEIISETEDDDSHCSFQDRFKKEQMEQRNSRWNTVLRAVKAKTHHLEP

Compound | IC50 (hTRPA1 [1]; [3]) | IC50 (hTRPA1 [2]; [4]) | IC50 (hTRPA1 [1]; [5]) | IC50 (hTRPA1 [2]; [6])
COc1ccc2nc(NC(=O)Cn3cnc4c3c(=O)n(C)c(=O)n4C)sc2c1 [Compound 234] | ≤ 10 µM | ≤ 5 µM | – | –
COC(=O)C1=C(C)NC(=S)NC1c1ccc(OC)c(Br)c1 (stereo not shown) | – | – | ≤ 1 µM | ≤ 5 µM
COC(=O)C1=C(C)N(C)C(=O)NC1c1ccc(O)c(Cl)c1 (stereo not shown) | – | – | > 10 µM | ≤ 5 µM
Cn1c(=O)c2c(ncn2CC(=O)NCc2cccnc2)n(C)c1=O [Compound 206] | ≤ 10 µM | > 10 µM | – | –
CCCC1=C(C(=O)OCC)C(c2ccccc2Cl)NC(=O)N1 (stereo not shown) | – | – | > 10 µM | ≤ 5 µM
CCOC(=O)C1=C(c2ccccc2)NC(=S)NC1c1ccc(OC(C)C)cc1 (stereo not shown) | – | – | > 10 µM | ≥ 20 µM
Cn1c(=O)c2c(ncn2CC(=O)Nc2ccncc2)n(C)c1=O [Compound 211] | > 10 µM | > 10 µM | – | –
COc1ccc(CCNC(=O)Cn2cnc3c2c(=O)n(C)c(=O)n3C)cc1 [Compound 261, 2-(1,3-Dimethyl-2,6-dioxo-1,2,3,6-tetrahydropurin-7-yl)-N-[2-(4-methoxy-phenyl)-ethyl]-acetamide] | ≤ 5 µM | ≤ 5 µM | – | –
CCOC(=O)C1=C(c2ccccc2)NC(=S)NC1c1cccc(OC)c1 (stereo not shown) | – | – | ≤ 5 µM | ≤ 5 µM
Cn1c(=O)c2c(ncn2CC(=O)Nc2ccc3c(c2)OCO3)n(C)c1=O [Compound 237] | ≤ 10 µM | > 10 µM | – | –
COC(=O)C1=C(C)NC(=S)NC1c1cccc(Cl)c1Cl (stereo not shown) | – | – | ≤ 1 µM | ≤ 5 µM
Cc1ccc(Oc2ccc(NC(=O)Cn3cnc4c3c(=O)n(C)c(=O)n4C)cc2)cc1 [Compound 266] | ≤ 0.5 µM | ≤ 5 µM | – | –
Cn1c(=O)c2c(ncn2CC(=O)Nc2nccs2)n(C)c1=O [Compound 225] | > 10 µM | > 10 µM | – | –
CCOC(=O)C1=C(C)NC(=S)NC1c1ccccc1C (stereo not shown) | – | – | ≤ 5 µM | ≤ 5 µM
COC(=O)C1=C(c2ccccc2)NC(=S)NC1c1ccc(OC)c(OC)c1 (stereo not shown) | – | – | ≤ 10 µM | –
Cn1c(=O)c2c(ncn2CC(=O)Nc2ccc(C34CC5CC(CC(C5)C3)C4)cc2)n(C)c1=O [Compound 264] | ≤ 0.5 µM | ≤ 5 µM | – | –
Cn1c(=O)c2c(ncn2CC(=O)Nc2ccc(Oc3ccccc3)cc2)n(C)c1=O [Compound 262] | ≤ 0.5 µM | ≤ 5 µM | – | –
COc1ccc(NC(=O)Cn2cnc3c2c(=O)n(C)c(=O)n3C)cc1 [Compound 207] | ≤ 10 µM | > 10 µM | – | –
Cn1c(=O)c2c(ncn2CC(=O)Nc2nc(-c3ccccc3)cs2)n(C)c1=O [Compound 230] | ≤ 10 µM | ≤ 10 µM | – | –
Cn1c(=O)c2c(ncn2CC(=O)Nc2ccc(SC(F)F)cc2)n(C)c1=O [Compound 257] | ≤ 1 µM | ≤ 1 µM | – | –
CCOc1ccc(NC(=O)Cn2cnc3c2c(=O)n(C)c(=O)n3C)cc1 [Compound 208] | > 10 µM | ≤ 10 µM | – | –
COC(=O)C1=C(c2ccccc2)NC(=S)NC1c1ccc(F)cc1 (stereo not shown) | – | – | > 10 µM | > 10 µM
Cn1c(=O)c2c(ncn2CC(=O)Nc2ccc(N3CCCCC3)cc2)n(C)c1=O [Compound 252] | ≤ 10 µM | ≤ 5 µM | – | –
C=CCOc1cccc(C2NC(=S)NC(C)=C2C(=O)OCC)c1 (stereo not shown) | – | – | ≤ 1 µM | ≤ 5 µM
CCOC(=O)C1=C(c2ccccc2)NC(=S)NC1c1ccc(Cl)c(Cl)c1 (stereo not shown) | – | – | > 10 µM | > 10 µM
COC(=O)C1=C(C)N(C)C(=O)NC1c1cccc(Br)c1 (stereo not shown) | – | – | > 10 µM | ≤ 5 µM
CCOC(=O)C1=C(c2ccccc2)NC(=S)NC1c1cc(O)ccc1Br (stereo not shown) [drawing 264] | – | – | ≤ 1 µM | –
Cn1c(=O)c2c(ncn2CC(=O)Nc2ccc3c(c2)CCC3)n(C)c1=O [Compound 240] | ≤ 5 µM | – | – | –
CCOC(=O)C1=C(c2ccccc2)NC(=S)NC1c1cc(O)ccc1Br (stereo not shown) [drawing 265] | – | – | ≤ 0.5 µM | –

Now from value to molecule:

IC50 (hTRPA1 [1]; [3]) | IC50 (hTRPA1 [2]; [4]) | IC50 (hTRPA1 [1]; [5]) | IC50 (hTRPA1 [2]; [6]) | Compound
≤ 1 µM | > 10 µM | – | – | Cn1c(=O)c2c(ncn2CC(=O)NCCc2ccc(Cl)cc2)n(C)c1=O [Compound 268, N-[2-(4-Chlorophenyl)-ethyl]-2-(1,3-dimethyl-2,6-dioxo-1,2,3,6-tetrahydro-purin-7-yl)-acetamide]
≤ 1 µM | ≤ 5 µM | – | – | Cn1c(=O)c2c(ncn2CC(=O)Nc2ccc(-c3ccccc3)cc2)n(C)c1=O [Compound 294]
≤ 10 µM | ≤ 10 µM | – | – | Cn1c(=O)c2c(ncn2CC(=O)NCCSCc2ccccc2)n(C)c1=O [Compound 329]
≤ 1 µM | ≤ 5 µM | – | – | Cn1c(=O)c2c(ncn2CC(=O)Nc2ccc(Br)cc2Cl)n(C)c1=O [Compound 333]
> 10 µM | – | – | – | COc1ccccc1CCNC(=O)Cn1cnc2c1c(=O)n(C)c(=O)n2C [Compound 403, N-(2-methoxyphenethyl)-2-(1,3-dimethyl-2,6-dioxo-1,2,3,6-tetrahydropurin-7-yl)acetamide]
≤ 10 µM | ≤ 5 µM | – | – | CC(C(=O)Nc1ccc(Br)cc1)n1cnc2c1c(=O)n(C)c(=O)n2C (stereo not shown) [Compound 296]
≤ 5 µM | – | – | – | COc1ccc(CCCNC(=O)Cn2cnc3c2c(=O)n(C)c(=O)n3C)cc1 [Compound 401, 2-(1,3-Dimethyl-2,6-dioxo-1,2,3,6-tetrahydropurin-7-yl)-N-[3-(4-methoxy-phenyl)-propyl]-acetamide]
≤ 5 µM | – | – | – | CN(C)c1ccc(CCNC(=O)Cn2cnc3c2c(=O)n(C)c(=O)n3C)cc1 [Compound 397, N-[2-(4-Dimethylaminophenyl)-ethyl]-2-(1,3-dimethyl-2,6-dioxo-1,2,3,6-tetrahydropurin-7-yl)-acetamide]
≤ 5 µM | – | – | – | Cn1c(=O)c2c(ncn2CC(=O)Nc2ccc(C(C)(C)O)cc2)n(C)c1=O [Compound 402, 2-(1,3-dimethyl-2,6-dioxo-1,2,3,6-tetrahydropurin-7-yl)-N-(4-(2-hydroxypropan-2-yl)phenyl)acetamide]
≤ 1 µM | ≤ 5 µM | – | – | CCCc1ccc(-c2csc(NC(=O)Cn3cnc4c3c(=O)n(C)c(=O)n4C)n2)cc1 [Compound 274]
≤ 10 µM | – | – | – | Cn1c(=O)c2c(ncn2CC(=O)Nc2ccccc2C2CCCC2)n(C)c1=O [Compound 398, N-(2-cyclopentylphenyl)-2-(1,3-dimethyl-2,6-dioxo-1,2,3,6-tetrahydropurin-7-yl)acetamide]
≤ 1 µM | ≤ 5 µM | – | – | CCCCc1ccc2nc(NC(=O)Cn3cnc4c3c(=O)n(C)c(=O)n4C)sc2c1 [Compound 269]
> 10 µM | > 10 µM | – | – | Cn1c(=O)c2c(ncn2CC(=O)Nc2ccccc2N2CCCC2)n(C)c1=O [Compound 350]
≤ 1 µM | ≤ 1 µM | – | – | Cn1c(=O)c2c(ncn2CC(=O)Nc2ccc(Cl)c(C(F)(F)F)c2)n(C)c1=O [Compound 267]
≤ 1 µM | – | – | – | Cc1ccc(CCNC(=O)Cn2cnc3c2c(=O)n(C)c(=O)n3C)cc1 [Compound 400, 2-(1,3-Dimethyl-2,6-dioxo-1,2,3,6-tetrahydro-purin-7-yl)-N-(2-p-tolyl-ethyl)-acetamide]
≤ 1 µM | – | – | – | Cn1c(=O)c2c(ncn2CC(=O)NCCc2ccccc2F)n(C)c1=O [Compound 404, N-(2-fluorophenethyl)-2-(1,3-dimethyl-2,6-dioxo-1,2,3,6-tetrahydropurin-7-yl)acetamide]
≤ 10 µM | – | – | – | Cc1cccc(CCNC(=O)Cn2cnc3c2c(=O)n(C)c(=O)n3C)c1 [Compound 407, 2-(1,3-Dimethyl-2,6-dioxo-1,2,3,6-tetrahydropurin-7-yl)-N-[2-(3-methyl-phenyl)-ethyl]-acetamide]
> 10 µM | – | – | – | CC(C)c1ccc(N(C)C(=O)Cn2cnc3c2c(=O)n(C)c(=O)n3C)cc1 [Compound 393, 2-(1,3-dimethyl-2,6-dioxo-1,2,3,6-tetrahydropurin-7-yl)-N-(4-isopropylphenyl)-N-methylacetamide]
> 10 µM | – | – | – | Cn1c(=O)c2c(ncn2CC(=O)NCCc2ccc(S(N)(=O)=O)cc2)n(C)c1=O [Compound 389]
> 10 µM | – | – | – | CC(C)c1ccc(NC(=O)Cn2cnc3c2c(=O)[nH]c(=O)n3C)cc1 [Compound 388, N-(4-isopropylphenyl)-2-(3-methyl-2,6-dioxo-1,2,3,6-tetrahydropurin-7-yl)acetamide]
≤ 5 µM | – | – | – | COc1cccc(CCNC(=O)Cn2cnc3c2c(=O)n(C)c(=O)n3C)c1 [Compound 408, 2-(1,3-Dimethyl-2,6-dioxo-1,2,3,6-tetrahydropurin-7-yl)-N-[2-(3-methoxy-phenyl)-ethyl]acetamide]
> 10 µM | – | – | – | CC(C)c1ccc(N(C)C(=O)Cn2cnc3[nH]c(=O)n(C)c(=O)c32)cc1 [Compound 392, N-(4-isopropylphenyl)-N-methyl-2-(1-methyl-2,6-dioxo-1,2,3,6-tetrahydropurin-7-yl)acetamide]
